Data from patent publication US20040010218A1, “Photodynamic therapy for the enhancement of vascular permeability to aid in drug delivery to diseased tissues” (priority 2002, published 2004).

Tested on: murine Colo-26 tumors
Assay: MR imaging of Colo-26 tumors 30 min after P-PDT
Format: in vivo
Details: P-PDT: 0.4 μmol/kg HPPH i.v., 24 h later 6 μmol/kg VBBO i.v., 3 h later 500 J/cm^2 at 619 nm; imaged 30 min after P-PDT; especially in the treated tumor
Description: FIG. 1 is a set of MR images of Colo-26 tumors taken 30 minutes after P-PDT to the tumor on the left of each image.
FIG. 1 illustrates the response of the vasculature in murine Colo-26 tumors to P-PDT. […] In this case, P-PDT involved i.v. injection of 0.4 μmol/kg HPPH (2-[1-hexyl-oxyethyl]-2-devinyl pyropheophoribde-a), followed 24 h later by i.v. injection of 6 μmol/kg VBBO (Victoria Blue-BO), followed 3 h later by local exposure of the tumor to 500 J/cm^2 of light at a wavelength of 619 nm. In Frame A, one can observe that the T2 weighted MRI image of the P-PDT treated tumor is markedly brighter than the control, which is believed to be due to increased water content because of enhanced edema and permeability in that tumor. Image intensity is further heightened by carbogen breathing as shown in Frame B of FIG. 1. […] Changes in signal intensity originate with the magnetic susceptibility of hemoglobin and are dependent on its oxygenation status. Oxyhemoglobin is diamagnetic, while deoxyhemoglobin is paramagnetic. The magnetic susceptibility differences between deoxyhemoglobin and surrounding tissue water create local field gradients that cause phase dispersion of nearby water protons, resulting in a loss of MR signal intensity. […]

CCCCCCOC(C)c1c(C)c2cc3nc(c4c5[nH]c(cc6nc(cc1[nH]2)C(C)=C6CC)c(C)c5C(=O)C4)[C@@H](CCC(=O)O)[C@@H]3C (stereo partly shown) [HPPH, 2-[1-hexyl-oxyethyl]-2-devinyl pyropheophoribde-a]
increase in MR image intensity during carbogen breathing: up to 40%
